From PMC10411393 (Journal of medicinal chemistry, 2022)

Assays:
HeLa cells = assay: MTS cell proliferation assay in asynchronously growing HeLa cells; format: cell-based, human; details: treated 2 days
Plk1 = details: read-out: IC50 against Plk1; cited from earlier work

Substance | inhibition of cell proliferation (MTS) (HeLa cells) | IC50 (Plk1) [nM]
PLHST | failed to show any detectable level of cell cytotoxicity | –
PLH*SpT | – | 17
